Usually AC50 stands for the concentration giving half of the maximal activity seen. High values mean activity only at high concentration, low ones activity at low concentration.

Results on three compounds are retold here after US8623821B2, “Zymogen activators” (Genentech, Inc., priority 2011, dated 2014).

Where a SMILES comes first, the peptide text is derived from it. Bridges are numbered along the chain shown (N, C = ends). Where no end group is shown, it is not given here.

One series concerns the target T1, Protein C (Homo sapiens, UniProt P04070).
T1 construct: purchased Haematologic Technologies, Inc. (Essex Junction, Vt.)
Kind of series: Zymogen serine protease activity assay (Ile-Pro-Arg-pNA hydrolysis). The format is biochemical. The settings on record: 100 nM Protein C, 2 mM Ile-Pro-Arg-pNA, peptide titration. The procedure: (§1) Zymogen serine proteases prethrombin-2 and Protein C were purchased from Haematologic Technologies, Inc. (Essex Junction, Vt.). Kinetic assays were carried out in 20 mM Hepes, 150 mM NaCl, 5 mM CaCl2, 0.01% Triton X-100, pH 7.2. All reactions contained 100 nM of enzyme plus 2 mM Ile-Pro-Arg-pNA substrate. IVGG.147A was titrated and the initial rates of substrate hydrolysis were measured in clear bottom 96-well plates using 405 nm absorbance on a SpectraMax Plus (Molecular Devices, Inc.).
(§2) The IVGG.14 peptide activator of pro-HGF took advantage of the canonical trypsin-like activation mechanism in order to allosterically activate binding of the serine protease-like domain within pro-HGF to Met. Given this activation mechanism is highly conserved among zymogens of the trypsin-like family of serine proteases and the fact that these proteins share a high degree of structural homology within the serine protease-like domains as well as the activation pockets, ZAPs for pro-HGF were analyzed for ability allosterically activate other zymogen serine proteases.

The target of a further series is T2, prethrombin-2 (Homo sapiens, UniProt P00734).
T2 construct: Zymogen serine proteases prethrombin-2 and Protein C were purchased from Haematologic Technologies, Inc; purchased Haematologic Technologies, Inc. (Essex Junction, Vt.)
The series is described as above. The class given is biochemical. The settings on record: 100 nM prethrombin-2, 2 mM Ile-Pro-Arg-pNA, peptide titration. The procedure:
as §1, §2

The next series in a line: Peptide solubility. The class given is physicochemical.
Series [1] has as its target T3, scHGF (Homo sapiens, UniProt P14210, R494E). Kind of series: In vitro wound closure assay, HeLa cell migration in the presence of scHGF. The class given is cell-based. Further details: Full-length recombinant HGF proteins were expressed in 1-liter fermentation cultures of Chinese hamster ovary (CHO) cells; made in house; host or cells: CHO cells (scHGF); Met is endogenous in HeLa cells. The settings on record: HeLa cells, scHGF present, read-out: EC50 of HeLa cell migration response. The text has this: (§3) Cellular assays were used to address whether the optimized ZAPtides act as allosteric activators of pro-HGF and stimulate Met signaling in biologically relevant settings of cell survival and migration. […] Importantly, ZAPtides required the presence of scHGF as well as induced […] cell survival that was antagonized by an HGF-blocking anti-Met antibody, each confirming Met pathway selectivity.

In series [2] the target is T3, scHGF. Kind of series: BxPC-3 cell survival assay, peptide titrations in the presence of scHGF. The class given is cell-based. Further details: Full-length recombinant HGF proteins were expressed in 1-liter fermentation cultures of Chinese hamster ovary (CHO) cells; made in house; host or cells: CHO cells (scHGF). The settings on record: BxPC-3 cells, serum starvation, 72 h, alamar Blue; read-out: EC50 of activation of scHGF, cell survival. The procedure: BxPC-3 cells were obtained from ATCC and maintained in cell culture medium (RPMI, 10% FBS (Sigma), 50 U/ml penicillin/50 μg/ml streptomycin, 2 mM glutamine). For the survival assay, cells were plated at 10,000 cells/well in 96 well tissue culture plates (Falcon 353072) in 50 μl assay diluent (RPMI, 0.1% BSA (Sigma) 50 U/ml penicillin/50 μg/ml streptomycin, 2 mM glutamine). Cells were allowed to attach for 1-2 h in a 37° C. CO2 incubator. Human HGF proteins (HGF, scHGF or scHGF plus peptide titrations) were pre-incubated at room temperature in assay diluent. HGF/peptide mixtures were added to cells in microtiter plates in triplicate at 50 μl per well and plates were incubated at 37° C. in a CO2 incubator. Final concentrations of HGF variants were 400 ng/ml and peptide concentrations were titrated accordingly. After 72 h, 25 μl alamar Blue (Serotec, BUF012B) was added to each well and incubate an additional 2 h at 37° C. in a CO2 incubator. Plates were agitated vigorously for 10 min at room temperature, and fluorescence was read at 530-590 nm in a fluorescent plate reader.
Using Bx-PC3 cells, peptide titrations in the presence of scHGF were performed and observed robust activation was seen of scHGF signaling through Met, which reached levels equivalent HGF-induced signaling.
as §3
Background: The colour change of resazurin is a common sign of viable cells or microbes.

The target in series [3] is zymogen-like pro-MSP β-chain (zMSP β). The series can be described thus: Activation of zMSP β binding to RON. The settings on record: activation of zMSP β to bind RON. As for the experimental part: The phage approach was also tested against pro-Macrophage Stimulating Protein (pro-MSP), another plasminogen-related growth factor, which, following proteolytic cleavage, signals through the RON receptor, having important roles in inflammation and cancer. Using a new cyclic library based on ZAP.03 (ZAPtide3 Library) and the described selection method a ZAPtide was discovered, ZAP3.2 that was specific for activating the zymogen-like pro-MSP β-chain (zMSP β) to bind RON with an AC50 of 134 μM.

T3 sequence (P14210 32-728 R494E): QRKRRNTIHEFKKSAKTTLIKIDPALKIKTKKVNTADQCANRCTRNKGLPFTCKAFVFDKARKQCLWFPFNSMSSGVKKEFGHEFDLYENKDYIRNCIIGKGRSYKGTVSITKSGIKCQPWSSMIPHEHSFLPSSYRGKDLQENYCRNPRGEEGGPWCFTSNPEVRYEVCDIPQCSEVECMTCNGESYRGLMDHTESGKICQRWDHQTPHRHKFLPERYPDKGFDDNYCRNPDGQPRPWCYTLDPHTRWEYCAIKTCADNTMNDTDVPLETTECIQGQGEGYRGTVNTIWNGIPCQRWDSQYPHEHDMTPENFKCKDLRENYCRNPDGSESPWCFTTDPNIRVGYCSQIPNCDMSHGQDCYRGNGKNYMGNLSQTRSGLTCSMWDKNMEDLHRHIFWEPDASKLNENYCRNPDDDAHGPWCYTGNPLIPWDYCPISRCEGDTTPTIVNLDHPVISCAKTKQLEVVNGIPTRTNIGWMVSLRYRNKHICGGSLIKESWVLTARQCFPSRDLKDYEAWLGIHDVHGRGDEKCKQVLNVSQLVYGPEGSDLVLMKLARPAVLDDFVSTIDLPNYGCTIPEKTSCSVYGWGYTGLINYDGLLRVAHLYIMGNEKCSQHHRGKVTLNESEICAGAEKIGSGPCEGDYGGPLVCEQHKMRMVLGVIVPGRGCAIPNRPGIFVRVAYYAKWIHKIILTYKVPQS
T1 sequence (P04070 19-461 limits assumed): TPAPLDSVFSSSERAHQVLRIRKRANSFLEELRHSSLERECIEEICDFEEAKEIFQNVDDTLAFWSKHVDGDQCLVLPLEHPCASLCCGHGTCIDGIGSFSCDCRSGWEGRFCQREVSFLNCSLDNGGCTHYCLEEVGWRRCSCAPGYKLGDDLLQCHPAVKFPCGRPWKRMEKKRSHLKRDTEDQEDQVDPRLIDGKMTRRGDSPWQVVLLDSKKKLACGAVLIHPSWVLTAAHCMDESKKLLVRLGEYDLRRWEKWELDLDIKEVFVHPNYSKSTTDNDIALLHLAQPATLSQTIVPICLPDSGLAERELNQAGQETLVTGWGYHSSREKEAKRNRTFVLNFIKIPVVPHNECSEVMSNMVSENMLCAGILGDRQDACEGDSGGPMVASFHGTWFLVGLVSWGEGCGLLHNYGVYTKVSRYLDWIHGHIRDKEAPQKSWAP

Regarding `CC[C@H](C)[C@H](N)C(=O)N[C@H](C(=O)NCC(=O)NCC(=O)N[C@@H](Cc1ccc(O)cc1)C(=O)N1CCC[C@H]1C(=O)N[C@@H](C)C(=O)N[C@@H](Cc1c[nH]c2ccccc12)C(=O)N[C@@H](CCSC)C(=O)N[C@@H](CC(=O)O)C(=O)N[C@H](C(N)=O)C(C)C)C(C)C` [IVGG.147A, I V G G Y P A W M D V] (H-IVGGYPAWMDV-NH2; N-terminus assumed), the “initial rate of substrate hydrolysis (Vi)” value at Protein C and at prethrombin-2 was “significantly increased” in each case. Moreover, in the series “Peptide solubility”, the “solubility, in words” value is on record as “exceptionally soluble”.

Regarding `CC[C@H](C)[C@H](N)C(=O)N[C@H](C(=O)NCC(=O)NCC(=O)N[C@H]1CSSC[C@@H](C(=O)N[C@H](C(N)=O)[C@@H](C)CC)NC(=O)[C@H](CCC(=O)O)NC(=O)[C@H](CCC(=O)O)NC(=O)[C@H](CCCNC(=N)N)NC(=O)[C@H](CC(=O)O)NC(=O)[C@H](CCSC)NC(=O)[C@H](Cc2c[nH]c3ccccc23)NC(=O)[C@H](Cc2ccc(O)cc2)NC(=O)[C@@H]2CCCN2C1=O)[C@@H](C)CC` [ZAP.03, I I G G C P Y W M D R E E C I] (H-IIGGCPYWMDREECI-NH2; disulfide 5-14), the EC50 on scHGF [1] turned out to be 60 nM; at scHGF [2], 400 nM.

Regarding “ZAP3.2: ZAPtide from the cyclic ZAPtide3 Library based on ZAP.03, activating zymogen-like pro-MSP β-chain (zMSP β) to bind RON (IVGGEPVWYVW; not fully specified)”, in series [3], the AC50 was 134000 nM.
